Measurements from patent US20250026741A1, “INHIBITORS OF THE ONCOGENIC SHP2 PHOSPHATASE AND USES THEREOF” (Sanford Burnham Prebys Medical Discovery Institute, priority 2021, published 2025).
Read-outs that look alike come from different tables or passages of the source.

Columns and labels:
Assay type in all cases: biochemical
[1] = biological target: SHP2 catalytic domain (SHP2cat; residues 248-527) (Homo sapiens (Human), UniProt Q06124); assay: DiFMUP fluorescence intensity phosphatase inhibition assay, SHP2cat
Source text: To test the synthesized compounds for their potential to inhibit SHP2 activity, a fluorescence intensity-based assay using 6,8-difluoro-4-methylumbelliferyl phosphate (DiFMUP) as the substrate was adapted for three recombinant SHP2 constructs: 1) the SHP2 catalytic domain (SHP2cat; residues 248-527), 2) the full-length SHP2-E76K oncogenic mutant, and 3) the full-length SHP2 wild-type (SHP2-WT). The recombinant SHP2 proteins were expressed and purified. A dually phosphorylated peptide derived from the insulin receptor substrate 1 (IRS-1) served as a surrogate binding protein and was used to activate SHP2-WT. […] Michaelis-Menten experiments to determine the DiFMUP Michaelis-Menten constant (Kmn) for each SHP2 construct were performed and yielded the following values: SHP2-WT, Km=60 μM; SHP2-E76K, Km=20 μM; SHP2cat, Km=20 μM. Relative maximum rates (Vmax) of the DiFMUP reactions were as follows: SHP2-WT, Vmax=871 AFU/min; SHP2-E76K, Vmax, =2730 AFU/min; SHP2cat, Vmax=2912 AFU/min. IC50 values for each compound were determined from initial rates in 10-point dose-response assays using DiFMUP at a concentration corresponding to its Km value for the respective SHP2 construct.
(§1) SHP2 inhibitors were tested at room temperature (RT) in a 384-well plate format standard phosphatase fluorescence intensity assay using DiFMUP (Invitrogen/Thermo Fisher Scientific, Carlsbad, CA) as a substrate and a total reaction volume of 25 μL. SHP2 inhibitors or vehicle (DMSO) were spotted in triplicate into a black Greiner FLUOTRAC™ 200 384-well microplate (#781076, Greiner) for a 10-point dose-response assay using an Echo®555 Liquid Handler (Labcyte, Inc., San Jose, CA). PTP working solutions were prepared at a 0.625 nM concentration (for a final concentration of 0.5 nM) in buffer containing 50 mM Bis-Tris pH 6.0, 50 mM NaCl, 5 mM DTT, and 0.01% Tween® 20. Prior to the assay, a dually phosphorylated insulin receptor substrate 1 (IRS-1) peptide [625 nM (500 nMfinal) (30)] was added to full-length WT SHP2 working solutions and incubated for 20 min. DiFMUP working solutions at 5× final concentration were prepared in 50 mM Bis-Tris pH 6.0, 50 mMNaCl, and 0.01% Tween 20. 20 μL of PTP working solution was dispensed into the microplate and incubated with inhibitor for 20 min at RT. […] The reaction was initiated by addition of 5 μL DiFMUP working solutions. Fluorescence intensity was measured in kinetic mode (every minute for 7 or 10 min) using a Tecan Spark® Multimode Microplate Reader (Tecan, Groedig, Austria) with an excitation wavelength of 360 nm and an emission wavelength of 460 nm. The initial rates were determined from the linear progression curves of the PTP reaction. The nonenzymatic hydrolysis of the substrate was corrected by using a control without addition of enzyme. IC50 values were calculated from the corrected initial rates by nonlinear regression using the program GraphPad Prism (GraphPad Software, Inc., San Diego, CA) Version 8. Dose-response inhibition assays of SHP2cat using the substrate OMFP were performed similarly as described above for DiFMUP. OMFP was used at a concentration corresponding to its Km value for SHP2cat (50 μM final). Fluorescence intensity was measured in kinetic mode (every minute for 10 min) using a Tecan Spark Multimode Microplate Reader with an excitation wavelength of 485 nm and an emission wavelength of 535 nm. Initial rates were determined and IC50 vales calculated as described above.

PTP1B catalytic domain = PTP1B catalytic domain (Homo sapiens (Human), UniProt P18031); assay: DiFMUP phosphatase inhibition assay, PTP1B; settings: for IC50: catalytic domain, DiFMUP at Km (25 μM); for fold selectivity for SHP2 over PTP1B: from IC50 values against catalytic domains
Method: (§2) Selectivity is one of the biggest challenges in PTP inhibitor development. […] Similar to SHP2, we adapted a 384-well plate format DiFMUP assay for recombinant PTP1B and STEP and performed Michaelis-Menten experiments to determine DiFMUP Km values for each phosphatase. IC50 values of our inhibitors for PTP1B and STEP were determined in 10-point dose-response assays with DiFMUP used at the concentration corresponding to the respective Km value. […] Other inhibitors with good relative selectivity for SHP2 included #02 (13-fold selective over PTP1B; 73-fold selective over STEP) and #05 (5-fold selective over PTP1B; >71-fold selective over STEP).
as §1

[2] = biological target: striatal-enriched tyrosine phosphatase (STEP) catalytic domain (Homo sapiens (Human), UniProt P54829); assay: DiFMUP phosphatase inhibition assay, STEP; settings: for IC50: catalytic domain, DiFMUP at Km (4 μM); for fold selectivity for SHP2 over STEP: from IC50 values against catalytic domains
Method: as §2, §1

[3] = DiFMUP at Km (20 μM), read-out: SHP2cat IC50
[4] = catalytic domain, DiFMUP at Km, read-out: SHP2 IC50

Chain of PTP1B catalytic domain (P18031 1-300): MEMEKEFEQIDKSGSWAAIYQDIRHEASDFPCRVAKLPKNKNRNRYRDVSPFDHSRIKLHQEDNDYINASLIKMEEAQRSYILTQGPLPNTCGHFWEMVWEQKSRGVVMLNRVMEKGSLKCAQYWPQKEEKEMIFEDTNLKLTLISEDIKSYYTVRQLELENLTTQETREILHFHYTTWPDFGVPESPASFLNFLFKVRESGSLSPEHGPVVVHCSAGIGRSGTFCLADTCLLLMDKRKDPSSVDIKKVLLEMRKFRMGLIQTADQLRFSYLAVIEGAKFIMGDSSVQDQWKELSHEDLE
Chain of SHP2 catalytic domain (SHP2cat; residues 248-527) (Q06124 248-527): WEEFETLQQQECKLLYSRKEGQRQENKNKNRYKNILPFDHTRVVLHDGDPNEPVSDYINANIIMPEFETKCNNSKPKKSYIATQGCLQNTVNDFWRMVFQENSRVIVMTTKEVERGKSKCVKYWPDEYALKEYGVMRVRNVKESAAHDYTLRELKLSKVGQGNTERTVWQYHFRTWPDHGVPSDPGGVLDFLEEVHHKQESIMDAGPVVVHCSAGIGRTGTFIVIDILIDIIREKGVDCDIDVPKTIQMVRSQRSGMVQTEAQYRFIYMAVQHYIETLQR
Chain of striatal-enriched tyrosine phosphatase (STEP) catalytic domain (P54829 280-565 limits assumed): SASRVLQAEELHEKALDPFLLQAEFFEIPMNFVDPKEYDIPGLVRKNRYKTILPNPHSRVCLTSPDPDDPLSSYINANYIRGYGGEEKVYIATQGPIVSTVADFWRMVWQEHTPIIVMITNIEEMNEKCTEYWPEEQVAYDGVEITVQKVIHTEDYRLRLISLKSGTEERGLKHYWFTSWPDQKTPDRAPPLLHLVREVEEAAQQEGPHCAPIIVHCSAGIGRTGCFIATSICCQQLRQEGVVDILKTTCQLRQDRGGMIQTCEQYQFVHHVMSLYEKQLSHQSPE

Structure (SMILES) | IC50 [1, 3] [µM] | IC50 [1, 4] [µM] | IC50 (PTP1B catalytic domain) [µM] | fold selectivity for SHP2 over PTP1B (PTP1B catalytic domain) [fold] | IC50 [2] [µM] | fold selectivity for SHP2 over STEP [2] [fold]
Nc1ccc(NC(=O)c2cc(-c3ccc(/C=C4\Sc5ccccc5C4=O)o3)ccc2O)cc1 [#01, (Z)—N-(4-Aminophenyl)-2-hydroxy-5-(5-((3-oxobenzo[b]thiophen-2(3H)-ylidene)methyl)furan-2-yl)benzamide] | ≤ 1 | 0.22 | 6.8 | 31 | 44 | 200
O=C(Nc1ccccc1)c1cc(-c2ccc(/C=C3\Sc4ccccc4C3=O)o2)ccc1O [#02, (Z)-2-hydroxy-5-(5-((3-oxobenzo[b]thiophen-2(3H)-ylidene)methyl)furan-2-yl)-N-phenylbenzamide] | ≤ 1 | 0.73 | 9.4 | 13 | 53 | 73
N#Cc1cc(-c2ccc(/C=C3\Sc4ccccc4C3=O)o2)ccc1O [#05, (Z)-2-Hydroxy-5-(5-((3-oxobenzo[b]thiophen-2(3H)-ylidene)methyl)furan-2-yl)benzonitrile] | 1 to 20 | 1.4 | 7.4 | 5 | > 100 | 
